ChEMBL document CHEMBL4342440, “Potential cytotoxic and anti-metastatic effects of berberine on gynaecological cancers with drug-associated resistance” (Eur J Med Chem, 2020)

Tests used:
[1] = test system: HeLa; test: Cytotoxicity against human HeLa cells measured after 48 hrs by SRB assay; assay type: functional, cell-based
[2] = test system: Ca-Ski; test: Cytotoxicity against human CaSki cells measured after 48 hrs by SRB assay; assay type: functional, cell-based
[3] = test system: Ca-Ski; test: Cytotoxicity against human CaSki cells measured after 48 hrs by MTT assay; assay type: functional, cell-based
[4] = test system: HeLa; test: Cytotoxicity against human HeLa cells measured after 48 hrs by MTT assay; assay type: functional, cell-based
[5] = test system: HeLa; test: Induction of apoptosis in human HeLa cells measured at 40 mg/L after 48 hrs relative to control; assay type: functional
[6] = Drug excretion in rat feces; assay type: ADME, tissue-based; settings: faeces, read-out: Drug excretion
[7] = test system: Vero; test: Cytotoxicity against African green monkey Vero cells measured after 48 hrs by MTT assay; assay type: cell-based; settings: Chlorocebus sabaeus
[8] = test system: HeLa 229; test: Cytotoxicity against human HeLa 229 cells measured after 48 hrs by MTT assay; assay type: functional, cell-based; settings: HeLa 229, 48 h
[9] = test system: HeLa; test: Induction of apoptosis in human HeLa cells measured at 20 mg/L after 48 hrs relative to control; assay type: functional
[10] = Drug excretion in rat bile; assay type: ADME, tissue-based; settings: read-out: Drug excretion
[11] = Drug excretion in rat urine; assay type: ADME, tissue-based; settings: read-out: Drug excretion

Row | SMILES | IC50 [1] | IC50 [2] | IC50 [4] | other results
1 | COc1cc(CN2CCN(c3ccc(C)cc3C)CC2)c2cc3[n+](cc2c1O)CCc1cc2c(cc1-3)OCO2.[Cl-] | 4.35 to 6.32 µg/mL | 3.41 to 6.08 µg/mL |  | 
2 | COc1cc(CN2CCN(c3ccc(Cl)cc3)CC2)c2cc3[n+](cc2c1O)CCc1cc2c(cc1-3)OCO2.[Cl-] |  |  | < 6 µg/mL | IC50 [3]: < 6 µg/mL
3 | COc1cc(CN2CCN(c3ccc(F)cc3F)CC2)c2cc3[n+](cc2c1O)CCc1cc2c(cc1-3)OCO2.[Cl-] | 4.35 to 6.32 µg/mL | 3.41 to 6.08 µg/mL |  | 
4 | COc1cc(CN2CCN(c3ccccc3Cl)CC2)c2cc3[n+](cc2c1O)CCc1cc2c(cc1-3)OCO2.[Cl-] |  |  | < 6 µg/mL | IC50 [3]: < 6 µg/mL
5 | COc1ccc(N2CCN(Cc3cc(OC)c(O)c4c[n+]5c(cc34)-c3cc4c(cc3CC5)OCO4)CC2)c(OC)c1.[Cl-] | 4.35 to 6.32 µg/mL | 3.41 to 6.08 µg/mL |  | 
6 | COc1cc(CN2CCN(c3ccc(OC(F)(F)F)cc3)CC2)c2cc3[n+](cc2c1O)CCc1cc2c(cc1-3)OCO2.[Cl-] |  |  | < 6 µg/mL | IC50 [3]: < 6 µg/mL
7 | COc1cc(CN2CCN(c3ccccc3F)CC2)c2cc3[n+](cc2c1O)CCc1cc2c(cc1-3)OCO2.[Cl-] |  |  | < 6 µg/mL | IC50 [3]: < 6 µg/mL
8 | COc1cc(CN2CCN(c3ccc(C)cc3)CC2)c2cc3[n+](cc2c1O)CCc1cc2c(cc1-3)OCO2.[Cl-] |  |  | < 6 µg/mL | IC50 [3]: < 6 µg/mL
9 | COc1cc(CN2CCN(c3cccc(Cl)c3)CC2)c2cc3[n+](cc2c1O)CCc1cc2c(cc1-3)OCO2.[Cl-] |  |  | < 6 µg/mL | IC50 [3]: < 6 µg/mL
10 | COc1cc(CN2CCN(c3ccccc3[N+](=O)[O-])CC2)c2cc3[n+](cc2c1O)CCc1cc2c(cc1-3)OCO2.[Cl-] |  |  | < 6 µg/mL | IC50 [3]: < 6 µg/mL
11 | COc1cc(CN2CCN(c3ccc(C(F)(F)F)cc3)CC2)c2cc3[n+](cc2c1O)CCc1cc2c(cc1-3)OCO2.[Cl-] |  |  | < 6 µg/mL | IC50 [3]: < 6 µg/mL
12 | COc1cc(CN2CCN(c3ccc(F)cc3)CC2)c2cc3[n+](cc2c1O)CCc1cc2c(cc1-3)OCO2.[Cl-] |  |  | < 6 µg/mL | IC50 [3]: < 6 µg/mL
13 | COc1cc(CN2CCN(c3cccc(Cl)c3Cl)CC2)c2cc3[n+](cc2c1O)CCc1cc2c(cc1-3)OCO2.[Cl-] | 4.35 to 6.32 µg/mL | 3.41 to 6.08 µg/mL |  | 
14 | COc1cc(CN2CCN(c3ccc([N+](=O)[O-])cc3)CC2)c2cc3[n+](cc2c1O)CCc1cc2c(cc1-3)OCO2.[Cl-] |  |  | < 6 µg/mL | IC50 [3]: < 6 µg/mL
15 | COc1ccc2cc3[n+](cc2c1OCCCCCNNc1nc2ccccc2s1)CCc1cc2c(cc1-3)OCO2.[Cl-] | 5.47 µg/mL | 5.31 µg/mL |  | 
16 | COc1ccc2nc(NCCCCCOc3c(OC)ccc4cc5[n+](cc34)CCc3cc4c(cc3-5)OCO4)sc2c1.[Cl-] | 5.47 µg/mL | 5.31 µg/mL |  | 
17 | COc1cc(CN2CCN(c3ccc(Cl)c(Cl)c3)CC2)c2cc3[n+](cc2c1O)CCc1cc2c(cc1-3)OCO2.[Cl-] | 4.35 to 6.32 µg/mL | 3.41 to 6.08 µg/mL |  | 
18 | COc1ccc2cc3[n+](cc2c1OCCCCCNc1nc2ccccc2s1)CCc1cc2c(cc1-3)OCO2.[Cl-] | 5.47 µg/mL | 5.31 µg/mL |  | 

Row | SMILES | IC50 [1] | IC50 [2] | IC50 [4] | other results
19 | COc1ccc2cc3[n+](cc2c1OCCCCCNc1nc2ccc(Cl)cc2s1)CCc1cc2c(cc1-3)OCO2.[Cl-] | 5.47 µg/mL | 5.31 µg/mL |  | 
20 | COc1ccc2cc3[n+](cc2c1OCCCCCNc1nc2ccc(C(=O)O)cc2s1)CCc1cc2c(cc1-3)OCO2.[Cl-] | 5.47 µg/mL | 5.31 µg/mL |  | 
21 | COc1cc(CN2CCN(c3cc(Cl)cc(Cl)c3)CC2)c2cc3[n+](cc2c1O)CCc1cc2c(cc1-3)OCO2.[Cl-] | 4.35 to 6.32 µg/mL | 3.41 to 6.08 µg/mL |  | 
22 | COc1ccc2cc3[n+](cc2c1OCCCCCNc1nc2ccc(C)cc2s1)CCc1cc2c(cc1-3)OCO2.[Cl-] | 5.47 µg/mL | 5.31 µg/mL |  | 
23 | COc1ccc2cc3[n+](cc2c1OCCCCCNc1nc2ccc(C(F)(F)F)cc2s1)CCc1cc2c(cc1-3)OCO2.[Cl-] | 5.47 µg/mL | 5.31 µg/mL |  | 
24 | COc1cc(CN2CCN(c3cccc(C)c3C)CC2)c2cc3[n+](cc2c1O)CCc1cc2c(cc1-3)OCO2.[Cl-] | 4.35 to 6.32 µg/mL | 3.41 to 6.08 µg/mL |  | 
25 | COc1cc(CN2CCN(c3cccc(F)c3F)CC2)c2cc3[n+](cc2c1O)CCc1cc2c(cc1-3)OCO2.[Cl-] | 4.35 to 6.32 µg/mL | 3.41 to 6.08 µg/mL |  | 
26 | COc1ccc2cc3[n+](cc2c1OCCCCCNc1nc2c(F)cc(F)cc2s1)CCc1cc2c(cc1-3)OCO2.[Cl-] | 5.47 µg/mL | 5.31 µg/mL |  | 
27 | COc1ccc2cc3[n+](cc2c1OCCCCCNc1nc2ccc(C#N)cc2s1)CCc1cc2c(cc1-3)OCO2.[Cl-] | 5.47 µg/mL | 5.31 µg/mL |  | 
28 | COc1ccc2cc3[n+](cc2c1OCCCCCNc1nc2ccc(F)cc2s1)CCc1cc2c(cc1-3)OCO2.[Cl-] | 5.47 µg/mL | 5.31 µg/mL |  | 
29 | COc1cc(CN2CCN(c3ccc(Cl)cc3Cl)CC2)c2cc3[n+](cc2c1O)CCc1cc2c(cc1-3)OCO2.[Cl-] | 4.35 to 6.32 µg/mL | 3.41 to 6.08 µg/mL |  | 
30 | COc1ccc2cc3[n+](cc2c1OCCCCCNc1nc2ccc(I)cc2s1)CCc1cc2c(cc1-3)OCO2.[Cl-] | 5.47 µg/mL | 5.31 µg/mL |  | 
31 | COc1ccc2cc3[n+](cc2c1OCCCCCNc1nc2ccc(Br)cc2s1)CCc1cc2c(cc1-3)OCO2.[Cl-] | 5.47 µg/mL | 5.31 µg/mL |  | 
32 | CCOc1ccc2nc(NCCCCCOc3c(OC)ccc4cc5[n+](cc34)CCc3cc4c(cc3-5)OCO4)sc2c1.[Cl-] | 5.47 µg/mL | 5.31 µg/mL |  | 
33 | COc1ccc2cc3[n+](cc2c1OCCCCCNc1nc2ccc([N+](=O)[O-])cc2s1)CCc1cc2c(cc1-3)OCO2.[Cl-] | 5.47 µg/mL | 5.31 µg/mL |  | 
34 | COc1ccc2cc3[n+](cc2c1OC)CCc1cc2c(cc1-3)OCO2 [BERBERINE] |  |  | 12.1 µg/mL | Activity [5]: 29.6%; dose excreted [6]: 22.7%; IC50 [7]: 71.1 µg/mL; IC50 [8]: 42.9 µM; Activity [9]: 16.7%; dose excreted [10]: 22.8%; dose excreted [11]: 0.0939%
35 | COc1c(O)ccc2cc3[n+](cc12)CCc1cc2c(cc1-3)OCO2.[Cl-] [THALIFENDINE] |  |  |  | dose excreted [10]: 83%
